Experimental data published in patent US20070259819A1, “Cosmetic Use of at Least Natural Tetrapeptide Ac-Ser-Asp-Lys-Pro or One of Its Analogs as a Skin Anti-Aging and Restructuring Agent” (Centre National De La Recherche Scientfique (CNRS), priority 2004, published 2007).
Entries after “also recorded” stand apart in the source; their conditions may differ. Peptide text beside a SMILES is read from it.

What was measured:
Type in all cases: cell-based
human skin explants = assay: General morphology of human skin explants (histology); conditions: topical daily
Protocol: (§1) This study was conducted on thirty six human skin explants obtained from breast plastic surgery.
(§2) All the explants were maintained in a state of survival in a culture medium for eight days. AcSDKP at a concentration of 10^−5 M or 10^−8 M in physiological serum was applied to the explants by topical route every day for one week. On days 2, 4, 6 and 8, three explants from each batch (control, +AcSDKP 10^−5 M+ AcSDKP 10^−8 M) were removed and prepared for histological studies. General morphology was examined and an evaluation of the expression of basal keratin (CK14), undifferentiated keratin (CK19), collagen III, collagen IV, fibronectin and glycosaminoglycan without an acid group was performed.

basal keratin (CK14) = assay: Immunolabelling of keratin 14 in human skin explants
Protocol: as §1, §2

[1] = test system: undifferentiated keratin (CK19); assay: Immunolabelling of keratin 19 in human skin explants
Protocol: as §1, §2

collagen III = assay: Immunolabelling of collagen III in human skin explants
Protocol: as §1, §2

collagen IV = assay: Immunolabelling of collagen IV in human skin explants; conditions: D6 and D8
Protocol: as §1, §2

fibronectin = assay: Immunolabelling of fibronectin in human skin explants
Protocol: as §1, §2

[2] = test system: glycosaminoglycan without an acid group; assay: P.A.S. Alcian blue staining of glycosaminoglycans without acid groups in human skin explants
Protocol: as §1, §2
This effect, clearly visible at D6 and D8, is characterised by a PAS positive increase in the number of fibroblasts in the papillary dermis, especially in the band situated along the dermo-epidermal junction and by increased levels of GAGs in these fibroblasts.

[3] = topical daily, human skin explants, immunolabelling

Question: What does the source list for `CC(=O)N[C@@H](CO)C(=O)N[C@@H](CC(=O)O)C(=O)N[C@@H](CCCCN)C(=O)N1CCC[C@H]1C(=O)O` [AcSDKP, CH3CO-Ser-Asp-Lys-Pro] (Ac-SDKP-OH)?
Answer: General morphology: epidermal structure (human skin explants; 10^-5 M and 10^-8 M, human skin explants): triggers stimulation of the epidermal structure as of D6 of treatment; Increase in epidermal thickness (human skin explants; 10^-5 M compared with 10^-8 M): increase in epidermal thickness is greater; Keratin 14 (CK14) restructuring effect (basal keratin (CK14); 10^-5 M compared with 10^-8 M): restructuring effect is greater; Keratin 14 (CK14) expression (basal keratin (CK14); [3]): gradual increase in the levels of this protein in the basal and superbasal position as of D4 of treatment; Keratin 19 (CK19) expression ([1]; 10^-5 M and 10^-8 M, topical daily, immunolabelling): overexpression of the skin's dermal attachments as of D6 of treatment; Keratin 19 (CK19) expression ([1]; 10^-5 M compared with 10^-8 M): less marked effect; Collagen III expression (collagen III; 10^-5 M, D8): very clear overexpression of collagen III in the papillary and reticular dermis; Collagen III levels (collagen III; 10^-5 M, six days of treatment): very marked increase in collagen III levels in the papillary dermis along the dermo-epidermal junction; Collagen III level (collagen III; 10^-8 M, D8): level of collagen III increases along the dermo-epidermal junction and forms a thicker collagen band; Collagen III expression along the dermo-epidermal junction (collagen III; 10^-8 M, six days of treatment, compared with 10^-5 M): less pronounced; Collagen IV levels in the basal membrane (collagen IV; 10^-5 M and 10^-8 M): less pronounced than that for type III collagen; Increase in collagen IV levels (collagen IV; 10^-5 M compared with 10^-8 M): higher; Fibronectin expression (fibronectin; 10^-5 M compared with 10^-8 M): greater activity; Fibronectin expression (fibronectin; [3]): fibronectin network is denser and has thicker fibres; also recorded: triggers overexpression of this protein along a dermo-epidermal junction as well as in the papillary and reticular dermis; Glycosaminoglycan (GAGs) levels ([2]; 10^-5 M and 10^-8 M, clearly visible at D6 and D8): significant increase in the levels of these compounds in the skin; Glycosaminoglycan (GAGs) expression ([2]; 10^-5 M compared with 10^-8 M): higher level of activity
